In one assay the test system is influenza virus A/PR 8. Description: Anti-viral activity in experimental influenza infection of Swiss mice. It counts as in vivo, mouse. The source says:
The anti-viral activity has been evaluated in an experimental infection system. Swiss mice aged 10 weeks were used. The virus chosen was that of the influenza virus A/PR 8.
At day D-0, the animals received by the intra-nasal route 50 microliters of a viral dilution at 1/10^4.
An anti-viral activity of the tested compound has been found both in preventive and curative experiments (prevention). The administration of one mg of compound by the intra-nasal route one day prior to the viral dilution produced the survival of 67% of the animals.
When the compounds were used at the curative level, the best results were obtained when 0.5 mg of the compound was administered sub-cutaneously one day after the administration of the viral dilution. 71% of the animals survived.

The next assay concerns Mastocytoma P815. Description: Growth inhibition of mastocytoma P815 cocultured with treated mouse peritoneal macrophages (tritiated thymidine incorporation). It counts as cell-based. As to conditions: MTP-chol in liposomes at 2 μg/ml (400 μg liposomes/ml) or 1 μg/ml (200 μg liposomes/ml) vs 50 μg of MDP. On the procedure:
I. The microphages used are peritoneal macrophages from eight week old female BDF 1 mice. They have been brought into the peritoneal cavity by i.p. injection 4 days earlier, of 1.5 ml of a sterile inflammatory irritant, thioglycollate medium (marketed by Institut Pasteur Production).
The peritoneal cells are obtained by peritoneal washing with 5 ml of MEM medium (see below) of mice previously killed by cervical dislocation and bled by decapitation.
After centrifugation, they are replaced in suspension in MEM (Minimal Essential Medium, Institut Pasteur Production) supplemented with 5% of inactivated fetal calf serum (gibco), and antibiotics (penicillin+streptomycine).
The macrophages are identified by microscope by their aptitude to endocyte neutral red and counted on an aliquot portion.
The suspension is then adjusted to 2.10^6 macrophages/ml and distributed in the proportion of 250 μl per cup in a Microtest II (NUNCLON) plastic box of 96 cups.
The disk is placed in an oven (HERAEUS) at 37° C. in an air atmosphere+5% water-saturated CO2. […]
The portion of filter corresponding to each cup is cut out and counted in the presence of scintillation liquid (LIPOLUMAC, LUMA) in a scintillation counter (RACKBETA, LKB). […]
The antitumoral activity of the macrophages is expressed as a percentage of growth inhibition: (%IC) [formula] […]
(Uptake of a labelled nucleoside into DNA is a usual measure of proliferation.)

The test system of another assay is B16-BL6 melanoma. Description: Cytotoxicity against B16-BL6 melanoma cocultured with treated rat alveolar macrophages (125I-deoxyuridine remaining). It counts as cell-based. As to the method:
The macrophages used are alveolar macrophages of F344 male rats of 200 gm. The macrophages are obtained by washing the lung with 9×5 ml of PBS medium of DULBECCO without calcium or magnesium, of rats anesthesitized with 0.5 ml 5% Nembutal ip (Laboratoires Abbott S.A.) and bled by incision of an artery of the kidney. After centrifugation, they are resuspended in MEM (Minimal Essential Medium) supplemented with 5% of inactivated fetal calf serum (Gibco), glutamine, sodium pyruvate, non-essential amino acids, vitamins and antibiotics (penicillin and streptomycine).
The suspension is then adjusted to 5×10^5 macrophages/ml and redistributed in the proportion of 100 μl per cup in a TITERTEK plastic dish of 96 cups. After incubation for 4 hours, the macrophages have adhered; the non-adherent cells (less than 5%) are removed by aspiration of the medium and two washings with incubation medium. […]
After 96 hours of coculture, the dead cells are removed by 3 washings of each cup with 200 μl of PBS of DULBECCO medium. […] The radioactivity remaining in each cup is counted in a gamma counter (BECKMAN GAMMA 4000). […]
the antitumoral activity of the macrophages is expressed as a cytotoxicity percentage (%CYT): [formula] where T=^125 I-deoxyuridine remaining in the untreated macrophages+tumoral cells coculture; and […]

In the assay with influenza virus A/PR 8 (curative: 0.5 mg sub-cutaneously one day after the viral dilution), `CC(=O)N[C@@H]1[C@@H](OC(C)C(=O)N[C@@H](C)C(=O)N[C@H](CCC(=O)N[C@@H](C)C(=O)O[C@H]2CC[C@@]3(C)C(=CC[C@H]4[C@@H]5CC[C@H]([C@H](C)CCCC(C)C)[C@@]5(C)CC[C@@H]43)C2)C(N)=O)[C@H](O)[C@@H](CO)O[C@@H]1O` (stereo partly drawn) [MTP-chol, N-acetyl-muramyl-L-alanyl-D-isoglutaminyl-L-alanyl-cholsteryl ester] registered an animals survived of 71%. In addition, in the assay on influenza virus A/PR 8 (preventive: one mg intra-nasal one day prior to the viral dilution), the “survival of the animals” value was 67%. Besides, the “activation of macrophages compared with MDP” value in the assay on Mastocytoma P815 is given as “activates the macrophages significantly more than 50 μg of MDP does”. For the same molecule, the “concentration of MTP-chol in the liposomes that significantly activates the macrophages” value in the assay with B16-BL6 melanoma (40 μg phospholipid/ml) is above 0.0017 µg/mL; in the assay with B16-BL6 melanoma (400 μg phospholipid/ml) it was “more than 0.017 μg/ml”.

The values are drawn from US4663311A, “Derivatives of muramyl-peptides and of steroids having macrophage-activating properties” (priority 1983, dated 1987).
